Data taken from ChEMBL document CHEMBL1201862, “PubChem BioAssay data set” (2004).
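96-well plates; 48 h exposure; 5 concentrations. Endpoints by linear interpolation between flanking doses. Not reached: highest tested concentration assigned. At the GI50, growth is halved.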 Activity calls are given as the source filed them. No stated cut-off is given here; in the data, active = GI50 up to about 1.1 µM and inactive = higher.

Key:
Assay in all cases: NCI anticancer screen, dose series, 48 h
ACHN = test system: ACHN
DMS-114 = test system: DMS-114
SW-620 = test system: SW-620
SK-MEL-5 = test system: SK-MEL-5
OVCAR-3 = test system: OVCAR-3
HL-60 = test system: HL-60
DLD-1 = test system: DLD-1
HT-29 = test system: HT-29
KM12 = test system: KM12
SNB-75 = test system: SNB-75
SK-MEL-28 = test system: SK-MEL-28
IGROV-1 = test system: IGROV-1
M14 = test system: M14
SNB-19 = test system: SNB-19
HOP-62 = test system: HOP-62
HCT-15 = test system: HCT-15
DMS-273 = test system: DMS-273
EKVX = test system: EKVX
SR = test system: SR
Malme-3M = test system: Malme-3M
RXF 631 = test system: RXF 631
SK-MEL-2 = test system: SK-MEL-2
SNB-78 = test system: SNB-78
CAKI-1 = test system: CAKI-1
KM-20L2 = test system: KM-20L2
U-251 = test system: U-251
MOLT-4 = test system: MOLT-4
XF498 = test system: XF498
NCI-H522 = test system: NCI-H522
LOX IMVI = test system: LOX IMVI
NCI-H23 = test system: NCI-H23
UACC-62 = test system: UACC-62
SF-295 = test system: SF-295
SK-OV-3 = test system: SK-OV-3
HOP-18 = test system: HOP-18
CCRF-CEM = test system: CCRF-CEM
UACC-257 = test system: UACC-257
786-0 = test system: 786-0
RPMI-8226 = test system: RPMI-8226
COLO 205 = test system: COLO 205
LXFL 529 = test system: LXFL 529
K562 = test system: K562
NCI-H226 = test system: NCI-H226
UO-31 = test system: UO-31
OVCAR-8 = test system: OVCAR-8
NCI-H460 = test system: NCI-H460
HOP-92 = test system: HOP-92
SN12C = test system: SN12C
HCC 2998 = test system: HCC 2998
TK-10 = test system: TK-10
OVCAR-4 = test system: OVCAR-4
SF-539 = test system: SF-539
OVCAR-5 = test system: OVCAR-5
SF-268 = test system: SF-268
HCT-116 = test system: HCT-116
A549 = test system: A549
A498 = test system: A498
RXF 393 = test system: RXF 393
M19-MEL = test system: M19-MEL

For `COc1ccc2ccc3c(c2c1)CN1CCc2cc(OC)c(OC)cc2C1C3` (stereo not drawn), the GI50 (ACHN) was > 100 µM (inactive), the GI50 (DMS-114) was > 100 µM (inactive) and the GI50 (SW-620) was > 100 µM (inactive). For the same compound, the GI50 (SK-MEL-5) was > 100 µM (inactive), the GI50 (OVCAR-3) was > 100 µM (inactive) and the GI50 (HL-60) was > 100 µM (inactive). The GI50 (DLD-1) was > 100 µM (inactive), the GI50 (HT-29) was > 100 µM (inactive) and the GI50 (KM12) was > 100 µM (inactive). For the same compound, the GI50 (SNB-75) was 28.1 µM (inactive), the GI50 (SK-MEL-28) was > 100 µM (inactive) and the GI50 (IGROV-1) was > 100 µM (inactive). The GI50 (M14) was > 100 µM (inactive), the GI50 (SNB-19) was > 100 µM (inactive) and the GI50 (HOP-62) was > 100 µM (inactive). For the same compound, the GI50 (HCT-15) was greater than 100 µM, the GI50 (DMS-273) was > 100 µM (inactive) and the GI50 (EKVX) was > 100 µM (inactive). The GI50 (SR) was > 100 µM (inactive), the GI50 (Malme-3M) was > 100 µM (inactive) and the GI50 (RXF 631) was > 100 µM (inactive). For the same compound, the GI50 (SK-MEL-2) was > 100 µM (inactive), the GI50 (SNB-78) was > 100 µM (inactive) and the GI50 (CAKI-1) was > 100 µM (inactive). The GI50 (KM-20L2) was > 100 µM (inactive), the GI50 (U-251) was > 100 µM (inactive) and the GI50 (MOLT-4) was > 100 µM (inactive). The GI50 (XF498) was 60.3 µM (inactive), the GI50 (NCI-H522) was > 100 µM (inactive) and the GI50 (LOX IMVI) was > 100 µM (inactive). For the same compound, the GI50 (NCI-H23) was > 100 µM (inactive), the GI50 (UACC-62) was > 100 µM (inactive) and the GI50 (SF-295) was > 100 µM (inactive). The GI50 (SK-OV-3) was > 100 µM (inactive), the GI50 (HOP-18) was > 100 µM (inactive) and the GI50 (CCRF-CEM) was > 100 µM (inactive). The GI50 (UACC-257) was > 100 µM (inactive), the GI50 (786-0) was > 100 µM (inactive) and the GI50 (RPMI-8226) was > 100 µM (inactive). The GI50 (COLO 205) was > 100 µM (inactive), the GI50 (LXFL 529) was 66.2 µM (inactive) and the GI50 (K562) was > 100 µM (inactive). For the same compound, the GI50 (NCI-H226) was > 100 µM (inactive), the GI50 (UO-31) was > 100 µM (inactive) and the GI50 (OVCAR-8) was > 100 µM (inactive). For the same compound, the GI50 (NCI-H460) was > 100 µM (inactive), the GI50 (HOP-92) was > 100 µM (inactive) and the GI50 (SN12C) was > 100 µM (inactive). The GI50 (HCC 2998) was > 100 µM (inactive), the GI50 (TK-10) was > 100 µM (inactive) and the GI50 (OVCAR-4) was > 100 µM (inactive). The GI50 (SF-539) was > 100 µM (inactive) and the GI50 (OVCAR-5) was > 100 µM (inactive).

In the case of `Cc1cccc(C(C)C)c1NC(=O)C(=O)C(C(=O)c1ccccc1F)C1OC(=O)c2ccccc21` (stereo not drawn), the GI50 (ACHN) is reported as 36.4 µM (inactive), the GI50 (DMS-114) is reported as 10.2 µM (inactive) and the GI50 (SW-620) is reported as 24.5 µM (inactive). The GI50 (SK-MEL-5) was 14.1 µM (inactive), the GI50 (OVCAR-3) was 14.4 µM (inactive) and the GI50 (SF-268) was 9.64 µM (inactive). The GI50 (DLD-1) was 14.8 µM (inactive), the GI50 (HT-29) was 29.6 µM (inactive) and the GI50 (HCT-116) was 13.6 µM (inactive). The GI50 (KM12) was 19.2 µM (inactive), the GI50 (SNB-75) was 9.75 µM (inactive) and the GI50 (SK-MEL-28) was 14.4 µM (inactive). The GI50 (IGROV-1) was 24.8 µM (inactive), the GI50 (M14) was 16.8 µM (inactive) and the GI50 (SNB-19) was 10.8 µM (inactive). The GI50 (HOP-62) was 15.8 µM (inactive), the GI50 (A549) was 37.5 µM (inactive) and the GI50 (HCT-15) was 20.5 µM. For the same compound, the GI50 (DMS-273) was 19 µM (inactive), the GI50 (EKVX) was 32.7 µM (inactive) and the GI50 (Malme-3M) was 9.82 µM (inactive). For the same compound, the GI50 (RXF 631) was 18.6 µM (inactive), the GI50 (SK-MEL-2) was 15.7 µM (inactive) and the GI50 (CAKI-1) was 31.5 µM (inactive). For the same compound, the GI50 (KM-20L2) was 29.2 µM (inactive), the GI50 (A498) was 23.7 µM (inactive) and the GI50 (U-251) was 7.16 µM (inactive). The GI50 (RXF 393) was 11.4 µM (inactive), the GI50 (MOLT-4) was 4.73 µM (inactive) and the GI50 (XF498) was 10.4 µM (inactive). The GI50 (NCI-H522) was 13.8 µM (inactive), the GI50 (LOX IMVI) was 13.4 µM (inactive) and the GI50 (NCI-H23) was 15 µM (inactive). For the same compound, the GI50 (UACC-62) was 10.4 µM (inactive), the GI50 (SK-OV-3) was 18.9 µM (inactive) and the GI50 (HOP-18) was 3.59 µM (inactive). The GI50 (CCRF-CEM) was 6.19 µM (inactive), the GI50 (UACC-257) was 13 µM (inactive) and the GI50 (786-0) was 15.7 µM (inactive). The GI50 (RPMI-8226) was 4.78 µM (inactive), the GI50 (COLO 205) was 21.1 µM (inactive) and the GI50 (LXFL 529) was 11.9 µM (inactive). For the same compound, the GI50 (K562) was 20.4 µM (inactive), the GI50 (NCI-H226) was 3.25 µM (inactive) and the GI50 (UO-31) was 16.8 µM (inactive). The GI50 (OVCAR-8) was 16.5 µM (inactive), the GI50 (NCI-H460) was 24.6 µM (inactive) and the GI50 (HOP-92) was 23.4 µM (inactive). The GI50 (SN12C) was 16.6 µM (inactive), the GI50 (HCC 2998) was 13.7 µM (inactive) and the GI50 (M19-MEL) was 11.5 µM (inactive). The GI50 (TK-10) was 39.6 µM (inactive), the GI50 (OVCAR-4) was 21.8 µM (inactive) and the GI50 (SF-539) was 8.28 µM (inactive). For the same compound, the GI50 (OVCAR-5) was 40 µM (inactive).

With `O=c1/c(=C/c2ccccc2[N+](=O)[O-])sc2nnc(-c3cccnc3)n12` the GI50 (ACHN) was > 100 µM (inactive), the GI50 (DMS-114) was > 100 µM (inactive) and the GI50 (SW-620) was 7.03 µM (inactive). The GI50 (SK-MEL-5) was > 100 µM (inactive), the GI50 (OVCAR-3) was > 100 µM (inactive) and the GI50 (HL-60) was > 100 µM (inactive). The GI50 (SF-268) was > 100 µM (inactive), the GI50 (DLD-1) was > 100 µM (inactive) and the GI50 (HT-29) was > 100 µM (inactive). For the same compound, the GI50 (HCT-116) was > 100 µM (inactive), the GI50 (KM12) was > 100 µM (inactive) and the GI50 (SNB-75) was > 100 µM (inactive). For the same compound, the GI50 (SK-MEL-28) was > 100 µM (inactive), the GI50 (IGROV-1) was > 100 µM (inactive) and the GI50 (M14) was > 100 µM (inactive). For the same compound, the GI50 (SNB-19) was 17.7 µM (inactive), the GI50 (HOP-62) was > 100 µM (inactive) and the GI50 (A549) was > 100 µM (inactive). The GI50 (HCT-15) was greater than 100 µM, the GI50 (DMS-273) was > 100 µM (inactive) and the GI50 (EKVX) was > 100 µM (inactive). For the same compound, the GI50 (SR) was 76.7 µM (inactive), the GI50 (Malme-3M) was > 100 µM (inactive) and the GI50 (RXF 631) was > 100 µM (inactive). The GI50 (SK-MEL-2) was > 100 µM (inactive), the GI50 (SNB-78) was > 100 µM (inactive) and the GI50 (CAKI-1) was 1.43 µM (inactive). The GI50 (KM-20L2) was > 100 µM (inactive), the GI50 (A498) was > 100 µM (inactive) and the GI50 (RXF 393) was > 100 µM (inactive). The GI50 (MOLT-4) was 63.5 µM (inactive), the GI50 (XF498) was > 100 µM (inactive) and the GI50 (LOX IMVI) was > 100 µM (inactive). The GI50 (NCI-H23) was > 100 µM (inactive), the GI50 (UACC-62) was > 100 µM (inactive) and the GI50 (SF-295) was > 100 µM (inactive). The GI50 (HOP-18) was > 100 µM (inactive), the GI50 (CCRF-CEM) was 55.8 µM (inactive) and the GI50 (UACC-257) was > 100 µM (inactive). For the same compound, the GI50 (786-0) was > 100 µM (inactive), the GI50 (RPMI-8226) was > 100 µM (inactive) and the GI50 (LXFL 529) was > 100 µM (inactive). For the same compound, the GI50 (K562) was 74.1 µM (inactive), the GI50 (NCI-H226) was > 100 µM (inactive) and the GI50 (UO-31) was > 100 µM (inactive). For the same compound, the GI50 (OVCAR-8) was > 100 µM (inactive), the GI50 (NCI-H460) was > 100 µM (inactive) and the GI50 (HOP-92) was > 100 µM (inactive). The GI50 (SN12C) was > 100 µM (inactive), the GI50 (HCC 2998) was > 100 µM (inactive) and the GI50 (M19-MEL) was > 100 µM (inactive). The GI50 (TK-10) was > 100 µM (inactive), the GI50 (OVCAR-4) was > 100 µM (inactive) and the GI50 (SF-539) was > 100 µM (inactive). The GI50 (OVCAR-5) was > 100 µM (inactive).
